Data published in patent publication US20230330093A1, “APPLICATION OF NITROGEN-CONTAINING SATURATED HETEROCYCLIC COMPOUND” (SHANGHAI PHARMACEUTICALS HOLDING CO., LTD., priority 2020, published 2023).
Where “and” joins values, the source holds several entries; their conditions need not be identical. Equal values may be shown once.

Tests used:
[1] = system: rhesus monkeys with spontaneous chronic kidney disease; assay: Effect on plasma creatinine Cr-P, 8-week administration; assay type: in vivo, Macaca mulatta (Rhesus Macaque)
Description: In the trial, animals were brought in three stages. […] Glomerular filtration rate […]: creatinine (Cr-P), urea nitrogen (BUN) and cystatin (CysC) were detected, and the eGFR value was obtained by calculation. It was performed once before the administration and once every two weeks after the administration. […] ELISA kit was used for NT-proBNP test. [table]

[2] = system: rhesus monkeys with spontaneous chronic kidney disease; assay: Effect on glomerular filtration rate eGFRcreat-cys, 8-week administration; assay type: in vivo, Macaca mulatta (Rhesus Macaque); conditions: for eGFRcreat-cy, Change value: 1 mg/kg oral once a day; for eGFRcreat-cys: 1 mg/kg qd (n = 5)
Description: CKD-EPI rating […]-G3b, glomerular filtration rate eGFR: 30 59 ml/min/1.73 m^2; or moderate to severe increase in proteinuria (A2-A3): urine albumin/creatinine ratio (UACR)>15 mg/g-350 mg/g (4-6 hour urine collection), vs. age-matched control group 3±2 mg/g. In the trial, animals were brought in three stages. […] Glomerular filtration rate […]: creatinine (Cr-P), urea nitrogen (BUN) and cystatin (CysC) were detected, and the eGFR value was obtained by calculation. It was performed once before the administration and once every two weeks after the administration. […] ELISA kit was used for NT-proBNP test. [table] Selected […] in each group: 30 59 ml/min/1.73 m^2. The changes in the glomerular filtration rate of W8 and baseline were analyzed.

## COC(=O)NCCCn1nc([C@@H](C)N(C(=O)[C@H]2CNCCO2)C2CC2)c2ccc(C)nc21.O=C(O)C[C@H](O)C(=O)O [malate of compound of Formula I]
[1]; 2 mg/kg (n = 5), 4 weeks, mean
  Cr-P: 1.28 ± 0.17 mg/dL
[1]; 2 mg/kg (n = 5), 6 weeks
  Cr-P: 1.17 mg/dL and 1.27 mg/dL and 1.43 mg/dL and 1.34 mg/dL and 1.04 mg/dL
[1]; 2 mg/kg (n = 5), 6 weeks, mean
  Cr-P: 1.25 ± 0.15 mg/dL
[1]; 2 mg/kg (n = 5), 8 weeks
  Cr-P: 1.17 mg/dL and 1.29 mg/dL and 1.4 mg/dL and 1.3 mg/dL and 1.11 mg/dL
[1]; 2 mg/kg (n = 5), 8 weeks, mean
  Cr-P: 1.25 ± 0.11 mg/dL
[1]; 2 mg/kg (n = 5), Baseline, single animals and Mean ± SD
  Cr-P: 1.15 mg/dL and 1.14 mg/dL and 1.36 mg/dL and 1.42 mg/dL and 1.06 mg/dL
[1]; 2 mg/kg (n = 5), Baseline, single animals and Mean ± SD, mean
  Cr-P: 1.23 ± 0.16 mg/dL
[1]; 5 mg/kg (n = 6), 2 weeks
  Cr-P: 0.92 mg/dL and 1.14 mg/dL and 0.88 mg/dL and 1.12 mg/dL and 1.40 mg/dL and 0.96 mg/dL
[1]; 5 mg/kg (n = 6), 2 weeks, mean
  Cr-P: 1.07 ± 0.19 mg/dL
[1]; 5 mg/kg (n = 6), 4 weeks
  Cr-P: 0.85 mg/dL and 1.26 mg/dL and 0.89 mg/dL and 1.15 mg/dL and 1.13 mg/dL and 1.33 mg/dL
[1]; 5 mg/kg (n = 6), 4 weeks, mean
  Cr-P: 1.10 ± 0.19 mg/dL
[1]; 5 mg/kg (n = 6), 6 weeks
  Cr-P: 0.87 mg/dL and 1.42 mg/dL and 1.02 mg/dL and 1.06 mg/dL and 1.12 mg/dL and 1.32 mg/dL
[1]; 5 mg/kg (n = 6), 6 weeks, mean
  Cr-P: 1.14 ± 0.20 mg/dL
[1]; 5 mg/kg (n = 6), 8 weeks
  Cr-P: 0.85 mg/dL and 1.22 mg/dL and 0.95 mg/dL and 1.04 mg/dL and 1.11 mg/dL and 1.18 mg/dL
[1]; 5 mg/kg (n = 6), 8 weeks, mean
  Cr-P: 1.06 ± 0.14 mg/dL
[1]; 5 mg/kg (n = 6), Baseline, single animals and Mean ± SD
  Cr-P: 0.90 mg/dL and 1.53 mg/dL and 1.10 mg/dL and 0.99 mg/dL and 1.43 mg/dL and 1.79 mg/dL
[1]; 5 mg/kg (n = 6), Baseline, single animals and Mean ± SD, mean
  Cr-P: 1.29 ± 0.35 mg/dL
[2]; 2 weeks vs baseline, per animal + Mean ± SD
  eGFRcreat-cy, Change value: 1 ml/min/1.73 m^2 and 2 ml/min/1.73 m^2 and −3 ml/min/1.73 m^2 and −2 ml/min/1.73 m^2 and 4 ml/min/1.73 m^2
[2]; 2 weeks vs baseline, per animal + Mean ± SD, mean
  eGFRcreat-cy, Change value: 0 ± 3 ml/min/1.73 m^2
[2]; 4 weeks vs baseline, per animal + Mean ± SD
  eGFRcreat-cy, Change value: 8 ml/min/1.73 m^2 and 10 ml/min/1.73 m^2 and 3 ml/min/1.73 m^2 and 1 ml/min/1.73 m^2 and 5 ml/min/1.73 m^2
[2]; 4 weeks vs baseline, per animal + Mean ± SD, mean
  eGFRcreat-cy, Change value: 5 ± 4 ml/min/1.73 m^2
[2]; 6 weeks vs baseline, per animal + Mean ± SD
  eGFRcreat-cy, Change value: 7 ml/min/1.73 m^2 and 3 ml/min/1.73 m^2 (3×) and 6 ml/min/1.73 m^2
[2]; 6 weeks vs baseline, per animal + Mean ± SD, mean
  eGFRcreat-cy, Change value: 4 ± 2 ml/min/1.73 m^2
[2]; 8 weeks vs baseline, per animal + Mean ± SD (no statistical change vs placebo)
  eGFRcreat-cy, Change value: 3±4 ml/min/1.73 m^2 and 7 ml/min/1.73 m^2 and 6 ml/min/1.73 m^2 and 0 ml/min/1.73 m^2 and 2 ml/min/1.73 m^2 and 5 ml/min/1.73 m^2
[2]; Baseline, per animal + Mean ± SD
  eGFRcreat-cy, Change value: 0 ml/min/1.73 m^2
[2]; Baseline, per animal + Mean ± SD, mean
  eGFRcreat-cy, Change value: 0 ± 0 ml/min/1.73 m^2
[2]; 2 weeks
  eGFRcreat-cys: 53 ml/min/1.73 m^2 and 56 ml/min/1.73 m^2 and 50 ml/min/1.73 m^2 and 48 ml/min/1.73 m^2
[2]; 2 weeks, group mean
  eGFRcreat-cys: 52 ± 3 ml/min/1.73 m^2
[2]; 4 weeks
  eGFRcreat-cys: 60 ml/min/1.73 m^2 and 64 ml/min/1.73 m^2 and 55 ml/min/1.73 m^2 and 52 ml/min/1.73 m^2 and 56 ml/min/1.73 m^2
[2]; 4 weeks, group mean
  eGFRcreat-cys: 57 ± 5 ml/min/1.73 m^2
[2]; 6 weeks
  eGFRcreat-cys: 58 ml/min/1.73 m^2 and 57 ml/min/1.73 m^2 and 56 ml/min/1.73 m^2 and 53 ml/min/1.73 m^2
[2]; 6 weeks, group mean
  eGFRcreat-cys: 56 ± 2 ml/min/1.73 m^2
[2]; 8 weeks
  eGFRcreat-cys: 58 ml/min/1.73 m^2 and 59 ml/min/1.73 m^2 and 53 ml/min/1.73 m^2 and 48 ml/min/1.73 m^2 and 57 ml/min/1.73 m^2
[2]; 8 weeks, group mean
  eGFRcreat-cys: 55 ± 5 ml/min/1.73 m^2
[2]; Baseline, single animals and Mean ± SD
  eGFRcreat-cys: 51 ml/min/1.73 m^2 and 54 ml/min/1.73 m^2 and 53 ml/min/1.73 m^2 and 50 ml/min/1.73 m^2 and 52 ml/min/1.73 m^2
